The values below come from patent US10406125B2, “Combination comprising an aminothiolester compound or a pharmaceutically acceptable salt thereof and a compound able to increase the H2O2 level in cancer cells of a subject” (ADVANCED BIODESIGN, priority 2015, dated 2019).

Assay [1] relates to Colo357. Description: Viability of Colo357 cells under combination treatment (FIG. 8B). It counts as cell-based. As to conditions: Colo357 (high GSH), combination treatment with S-methyl 4-(dimethylamino)-4-methylpent-2-ynethioate.
The test system of assay [2] is H2O2 level in Colo357 cell line. Description: Measurement of H2O2 level in Colo357 cell line (FIG. 8A). As to conditions: CPPD 20 μmol·L−1, Doxo 25 μmol·L−1. Type of assay: cell-based.
Protocol: Intracellular H2O2 production in live cells was measured using Total ROS/superoxide detection kit (Enzo life science), following the manufacturer's instructions. The assay uses specific H2O2/RNS probes that upon reaction with H2O2 and RNS species are oxidized rapidly to highly fluorescent compounds. Fluorescence intensity is proportional to the total H2O2/RNS levels within the sample. […] The day before the analysis, cells were seeded in 96-well black/clear bottom plates at a density of 2×10^4 in culture media according to cell suppliers instructions, supplemented with FBS (10% v/v), 10 units of penicillin/ml and 100 mg of streptomycin. Cells were kept at 37° C. in a humid atmosphere of 95% air: 5% CO2 overnight. […] After the incubation period, wells were loaded with 100 μL of H2O2 Detection Solution, containing the respective treatment agent or controls and incubated for 60 min at 37° C. in the dark. Several wells were left without cells for the background fluorescence control measurements. Plates were read using Appliskan fluorescence microplate reader (Thermo Scientific) (ex=560 nm, Em=600). Data are expressed as the change in arbitrary fluorescence units produced from equal amount of cells and normalized to total protein input.
For assay [3], the system named is HCC827. Description: Cell viability assay (Rezasurin), 96 well format. Type of assay: cell-based. As to conditions: Homo sapiens, 48 h, DIMATE alone or with PCN 40 μM, read-out: abs.IC50.
Assay [4] concerns MSC. Description: Quantification of MDA and HNE adducts by ELISA in resistant cells. Type of assay: cell-based. As to conditions: 5 or 10 μmol·L^−1, 24 hours. How it is done:
(§1) Quantitative Determination of FINE-Protein and MDA/Protein Adducts by ELISA
(§2) The formation of HNE-adducts and MDA-adducts was quantified with the Oxiselect HNE Adduct Elisa kit (Cell Biolabs, San Diego, Calif.) and the OxiSelect MDA Adduct ELISA Kit (Cell Biolabs), respectively. Briefly, after a treatment with S-methyl 4-(dimethylamino)-4-methylpent-2-ynethioate during 24 hours, cells were lysed by sonication in reducing SDS Sample Buffer. Homogenates were diluted to 10 μg protein/mL and adsorbed in 96-well protein binding plates by incubation at 37° C. for at least 2 hours. Wells were washed twice with PBS and incubated for an additional 2 hours at room temperature on an orbital shaker. Following three washes in PBS, 100 μL of anti-HNE antibody or anti-MDA antibody were added to the wells and incubated for 1 hour at room temperature. Subsequently, goat anti-rabbit secondary antibody-HRP conjugate (diluted 1/1000 with the assay diluent) was added and incubation continued for 1 hour. Wells were washed five times in PBS and HRP-substrate was added. Reaction was stopped with an acidic solution, and absorbance read on a microplate reader at 450 nm. The level of HNE-adducts and of MDA-adducts was determined by comparison with a standard curve prepared from HNE-BSA and MDA-BSA standards supplied by the manufacturer.

Assay [5] relates to Hop62. Description: Cell viability assay (Rezasurin), 96 well format. It counts as cell-based. As to conditions: Homo sapiens, HOP-62, 48 h, DIMATE alone or with PCN 40 μM, read-out: abs.IC50.
The test system of assay [6] is HL-60, NT2/D1. Description: Quantification of MDA and HNE adducts by ELISA in sensitive cells. It counts as cell-based, human. Conditions: 5 or 10 μmol·L^−1, 24 hours. Here is the method:
as §1, §2
For orientation: In an ELISA, binding on a coated surface is turned into a signal by an enzyme label.

Assay [7] has as its system THP-1. Description: Cell viability assay (Rezasurin), 96 well format. Type of assay: cell-based. As to conditions: Homo sapiens, 48 h.
The conditions of assay [8]: cited from earlier work.
Assay [9] relates to H2O2 levels. Description: Measurement of H2O2 production after cell exposure to pyocianin. Type of assay: cell-based, human. Conditions: pyocianin 40 μM. How it is done: Measurement of H2O2 Production
Intracellular H2O2 production in live cells was measured using Total ROS/superoxide detection kit (Enzo life science), following the manufacturer's instructions. The assay uses specific H2O2/RNS probes that upon reaction with H2O2 and RNS species are oxidized rapidly to highly fluorescent compounds. Fluorescence intensity is proportional to the total H2O2/RNS levels within the sample. […] The day before the analysis, cells were seeded in 96-well black/clear bottom plates at a density of 2×10^4 in culture media according to cell suppliers instructions, supplemented with FBS (10% v/v), 10 units of penicillin/ml and 100 […]. Cells were kept at 37° C. in a humid atmosphere of 95% air: 5% CO2 overnight. On the day of the analysis, cells media was replaced by 100 μL of phenol free-media supplemented as above, without any treatment, with S-methyl 4-(dimethylamino)-4-methylpent-2-ynethioate for 6 hours, vehicle HEPES for 6 hours, or with the different control agents PCN and NAC for 20 min. […] Several wells were left without cells for the background fluorescence control measurements. Plates were read using Appliskan fluorescence microplate reader (Thermo Scientific) (ex=560 nm, Em=600). Data are expressed as the change in arbitrary fluorescence units produced from equal amount of cells and normalized to total protein input.

The subject of assay [10] is cancer cells. Description: Cell viability after exposure to pyocianin. It counts as cell-based, human. As to conditions: pyocianin 40 μM. Here is the method: Cells were seeded into 96-well cell culture plates at concentrations required to ensure approximately 80% confluence in control (untreated cells) at the end of experiment (0.5×10^4-5×10^4 cell/well). The sensitivity towards S-methyl 4-(dimethylamino)-4-methylpent-2-ynethioate was determined using different concentrations of the drug (from 0.01 to 100 μM). After 48 hours, the growth-inhibitory effect of the drug was analyzed using Rezasurin, according to manufactures instruction. To ensure good data quality and to minimize impact of pipetting errors, each particular drug concentration was assessed based on mean fluorescence intensity from 8 separate wells. The drug response was quantified by the half maximal inhibitory concentration (IC50) for each particular cell line, and determined by non-linear regression analysis of log-dose/response curves. Cut-off value for resistance to S-methyl 4-(dimethylamino)-4-methylpent-2-ynethioate was determined statistically (>2 S.D. above the IC50 geometric mean). The in-vitro threshold value for hypersensitivity to the drug has been defined as <IC50 geometric mean.
In a different experiment, cells showing resistance to S-methyl 4-(dimethylamino)-4-methylpent-2-ynethioate (THP-1, HCC827, and Hop62) were challenged with H2O2 inducer. […]

As a reminder, the IC50 is the concentration needed to halve the response being measured.

SMILES strings stand for the structures. Where two headings read alike, the source gives them in different places. Where only a bound is given, the exact number is not on record here.

In the case of `N.N.[Cl][Pt][Cl]` [CPPD, Cisplatin], in [1], the effect on viability entry is reported as “no effect”. Moreover, the “increase of H2O2 level” value in assay [2] was found to be 200%.
For `CSC(=O)C#CC(C)(C)N(C)C` [DIMATE, S-methyl 4-(dimethylamino)-4-methylpent-2-ynethioate], the half-inhibitory concentration (IC50) in assay [3] was determined as 25 µM; in assay [5], 39 µM; in assay [7] (THP-1, DIMATE alone or with PCN 40 μM, read-out: abs.IC50), 46 µM; in assay [7] (THP-1 resistant cells, DIMATE alone or with H2O2 inducer at fixed concentration (2-ME 100 μM, ATO 1 μM, Daunorubicine 40 nM, Doxorubicine 20 nM, Etoposide 500 nM, Mitoxanthrone 50 nM, Parthenolide 100 nM, Piperlongumine 2 μM), read-out: IC50), 46 µM. Moreover, the HNE-adducts level in assay [4] is recorded as < 1 μg per μg of total protein; in assay [6], > 1 μg per μg of total protein. In addition, the results for the MDA-adducts level in assay [4] and in assay [6] were < 100 ng per μg of total protein and “above 100 ng per μg of total protein”, respectively.
For `COc1cccc2c1C(=O)c1c(O)c3c(c(O)c1C2=O)C[C@@](O)(C(=O)CO)C[C@@H]3O[C@H]1C[C@H](N)[C@H](O)[C@H](C)O1` [Doxo, Doxorubicin], in assay [1], the effect on viability result is “no effect”. Also, the “increase of H2O2 level” value in assay [2] is reported as 10 000%.
Take `CC(=O)N[C@@H](CS)C(=O)O` [NAC, N-acetyl-L-cysteine]: the “rate constant, scavenging of hydroxy radicals” value in assay [8] (hydroxy radicals) is reported as 1.36×10^10 M^−1,s^−1. Further, in assay [8] (superoxide anion), the “reaction with superoxide anion” value was “no reaction”.
As to `Cn1c2cccc(=O)c-2nc2ccccc21` [pyocianin, pyocyanin], the “increase in H2O2 levels” value in assay [9] is listed as “two-fold increase”. In assay [10], the “effect on cell viability” value was “without affecting cell viability”.
